Assay results published in patent US7662824B2, “Acylhydrazones as kinase modulators” (Janssen Pharmaceutica NV, priority 2005, dated 2010).
Values after ≈ are worked out from the molar mass of the structure shown.

Key:
Aqueous solubility assay = details: water with 0.4% DMSO, kinetic from dmso stock
Description: Water, PBS and aqueous HCl at pH2 having a final DMSO content of 0.4%, with the final DMSO concentration reaching 40 μM. Samples were placed in the incubator and shaken for 15 minutes.

c-Met [1] = target: T1, c-Met (Homo sapiens, UniProt P08581); experiment: Fluorescence polarization assay on the kinase activity of c-Met; format: biochemical; set-up: The c-Met kinase domain consists amino acid 1046-1390 of the c-Met protein; made in house; host or cells: Sf9 insect cells with baculovirus; details: 6H-TEV-cMet, poly Gly4Tyr substrate, 10 μM ATP; read-out: c-Met FP Enz IC50
Description: A fluorescence polarization assay (FP) was developed for screening of compounds that decreases the kinase activity of c-Met.
A protein (6H-TEV-cMet) comprising c-Met kinase domain was cloned, recombinantly expressed and purified following a procedure similar to that as described in Example A. The protein comprises a His tag consisting of six histidines at its N-terminal, a TEV protease cleavage site, and the c-Met kinase domain. The c-Met kinase domain consists amino acid 1046-1390 of the c-Met protein as listed in GenBank protein accession number P08581.
For the c-Met kinase assay, the 6H-TEV-cMet was used as the enzyme, and a poly Gly4Tyr peptide (Sigma, P-0275) was used as the substrate. The kinase reaction was performed in a volume of 10 μl in HE microplates (LJL Biosystems). Assay conditions were as follows: 100 mM HEPES pH 7.5, 0.01% Tween-20, 1 mM DTT, 5 mM MgCl2, 10 μM ATP, 10 μg/ml poly Gly4Tyr. The kinase reaction was initiated upon addition of 10 nM 6H-TEV-cMet. After a 12 minute incubation at room temperature the reaction was terminated with […] 50 mM EDTA.
Phosphorylation of the peptide substrate was detected with PanVera Tyrosine Kinase Assay Kit, Green reagents (P2837). Five minutes after the addition of EDTA, 10 μl of antibody/tracer mix (Pan Vera reagents, 1:1:3 dilution of antibody: Tracer: FP dilution buffer, Cat. # P2837) was added to each well. Plates were allowed to incubate for 30 minutes at room temperature and fluorescence polarization was measured with an LJL Analyst instrument (Molecular Devices; Sunnyvale, Calif.) with excitation=485 nm filter and emission=530 nm filter. IC50 values were calculated from triplicate sets of data using Graphpad Prism software (Graphpad Software; San Diego, Calif.).
Target sequence in this assay (P08581 1046-1390): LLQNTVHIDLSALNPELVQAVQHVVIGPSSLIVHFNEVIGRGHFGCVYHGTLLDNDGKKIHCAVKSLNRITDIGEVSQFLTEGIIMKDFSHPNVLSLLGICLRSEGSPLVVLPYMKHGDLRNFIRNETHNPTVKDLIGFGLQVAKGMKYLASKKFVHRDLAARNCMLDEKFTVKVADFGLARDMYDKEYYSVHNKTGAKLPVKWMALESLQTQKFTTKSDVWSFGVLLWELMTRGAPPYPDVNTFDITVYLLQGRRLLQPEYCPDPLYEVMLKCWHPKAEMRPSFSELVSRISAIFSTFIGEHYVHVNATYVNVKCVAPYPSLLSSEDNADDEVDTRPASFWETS

c-Met [2] = target: T1, c-Met; experiment: Delfia autophosphorylation kinase assay on the c-Met; format: biochemical; set-up: The purified His6 tagged cytoplasmic domain of c-Met was diluted to a concentration of 500 ng/ml; made in house; host or cells: Sf9 insect cells with recombinant baculovirus; Large-scale expression and purification were done by the contract lab Pan Vera; details: His6 tagged cytoplasmic domain of c-Met, 1 μM ATP; read-out: c-Met Delfia Autophos IC50
Description: This example describes the cloning, expression, and purification of the cytoplasmic domain of c-Met which has the c-Met receptor tyrosine kinase activity.
A DELFIA time resolved fluorescence assay was developed for screening of compounds that decreases the autophosphorylation thus the kinase activity of c-Met.
The DELFIA assay is non-radioactive. The autophophorylation of the c-Met is measured by an anti-phosphotyrosine antibody coupled to an Europium tag.
A major advantage of this format is that it allowed for the development of an autophosphorylation assay using Ni-chelate plates which bind the hexa-his tag on the recombinant Met kinase. Autophosphorylation assay allows to use a known substrate, Met kinase itself, for the phosphorylation. The DELFIA Met autophosphorylation assay is very sensitive with a signal to noise ratio in excess of 50:1.
The assay procedure for screening is as follows. The purified His6 tagged cytoplasmic domain of c-Met was diluted to a concentration of 500 ng/ml in enzyme dilution buffer (50 mM Tris-HCl, pH8.0, 0.1% BSA) and dispensed to assay plates at a volume of 50 μl per well. Black opaque HisGrab Nickel coated 96 well plates (Pierce, Rockford, Ill.) were selected to run the assay. Next, 2.5 μl of compound in 40% DMSO was added to test wells, 2.5 μl of 40% DMSO only was added to the negative control wells. The autophosphorylation reaction was initiated upon the addition of 50 μl of reaction buffer, 50 mM Tris-HCl, pH 8.0, 10 mM MgCl2, 0.1 mM Na3VO4, 1 mM DTT, 1 μM ATP. Plates were incubated at room temperature for 1 hour followed by 2 washes with 200 μl/well of PBS. Europium conjugated anti-phosphotyrosine antibody, Eu-PY20 from Perkin Elmer was diluted to 50 ng/ml in Delfia AB buffer (Perkin Elmer, Boston, Mass.), added to the 96 well assay plates at a volume of […], and incubated at room temperature for 2 hours. Assay plates were then washed 4 times each with 200 μl/well of Delfia wash buffer (Perkin Elmer). After the final wash 150 μl of Delfia Enhancement solution (Perkin Elmer) was added to each well of the assay plate and incubated at room temperature for 1 hour. Plates were read on an LJL Analyst instrument (Molecular Devices; Sunnyvale, Calif.) with filter settings of 360 excitation, 620 emission, and 410 dichroic. IC50 values were calculated using Graphpad Prism software (Graphpad Software; San Diego, Calif.).
Target sequence in this assay (P08581 956-1390 limits assumed): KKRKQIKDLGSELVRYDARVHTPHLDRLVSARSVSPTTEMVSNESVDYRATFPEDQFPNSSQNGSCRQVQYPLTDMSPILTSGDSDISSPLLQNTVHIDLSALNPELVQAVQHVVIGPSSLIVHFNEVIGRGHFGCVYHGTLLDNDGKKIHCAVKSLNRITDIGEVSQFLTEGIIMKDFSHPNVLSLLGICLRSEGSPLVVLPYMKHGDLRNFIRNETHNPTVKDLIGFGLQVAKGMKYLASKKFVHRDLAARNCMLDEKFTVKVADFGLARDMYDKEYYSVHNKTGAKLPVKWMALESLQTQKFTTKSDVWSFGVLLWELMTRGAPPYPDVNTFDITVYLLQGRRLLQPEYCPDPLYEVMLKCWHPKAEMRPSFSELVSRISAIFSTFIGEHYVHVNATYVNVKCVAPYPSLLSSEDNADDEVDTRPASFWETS

solubility at 15 min (Aqueous solubility assay): 38.1 µM (≈ 18.2 µg/mL) | IC50 (c-Met [1]): 24 nM | IC50 (c-Met [2]): 24 nM
SMILES: O=C(Cc1ccc2c(c1)CCO2)N/N=C1\C(=O)Nc2cc(C(=O)NCCN3CCOCC3)ccc21 [Example 3, 3-[(2-2,3-Dihydro-benzofuran-5-yl-acetyl)-hydrazono]-2-oxo-2,3-dihydro-1H-indole-6-carboxylic acid(2-morpholin-4-yl-ethyl)-amide]
